Marks after values point to notes of the source that are not given here.
Experiments:
[1] = system: neutrophils in bone marrow; test: Neutrophils in bone marrow by FACS analysis; format: in vivo, Swiss-Webster mice; conditions: mice, oral gavage, tibia bone marrow 6 h after final dosing
Protocol: (§1) Six hours after the final dosing, 200 μl blood samples were collected for detection of hematopoietic progenitor cells (HPCs) and neutrophils by FACS analysis using methods previously described. (See, e.g., Wang et al. (1997) J Leukoc Biol 62 503-9 and Legasse et al. (1996) J Immunol Methods 197:139-50.) Briefly, leukocytes and progenitor cells were isolated from whole blood samples following erythrocyte depletion using red blood cell lysis buffer (eBioscience) according to the manufacturer's instructions. The remaining cells were incubated for one hour with monoclonal antibodies directed against mouse Sca-1 and mouse c-Kit (cell surface markers for HPCs, BD Pharmingen), or mouse Mac-1 and mouse Gr-1 (cell surface markers for murine neutrophils, BD Pharmingen). Following incubation with the monoclonal antibodies, the cells were washed three times with sort buffer (PBS, 1% fetal bovine serum) and resuspended in sort buffer containing 50 μg/ml of propidium iodide. Samples were then analyzed for the presence and quantitation of HPCs and neutrophils by flow cytometry (FACS Calibur, Becton Dickinson). The cytometer was set to acquire 10 000 events. Two or three blood samples obtained from each animal were analyzed and the average recorded. Hematopoietic progenitor cells were determined as double positive Sca-1+/c-Kit+ cells and neutrophils were determined as double positive Mac-1+/Gr-1+ cells.
(§2) To examine the effect of compounds and methods of the present invention on hematopoietic progenitor cell (HPC) and neutrophil levels in bone marrow, the following studies were performed. Male Swiss-Webster mice were administered various compounds of the present invention via oral gavage using a ball-tipped gavage needle. Animals treated by oral gavage received a 10 ml/kg volume of either 0.5% carboxymethyl cellulose (CMC) with 0.1% Polysorbate 80 (vehicle control) or various doses (10-100 mg/kg) of a compound of the present invention in 0.5% CMC with 0.1% Polysorbate 80. Animals were dosed once daily for 3 or 4 days. Six hours after the final dosing, bone marrow samples were taken from one tibia of each animal and suspended in buffer (PBS with 1% fetal bovine serum). Bone marrow suspensions were then filtered through nylon filters to remove stromal cells. Following filtration, the remaining cells were counted manually using a hemocytometer. Detection and quantitation of HPCs and neutrophils were performed by FACS analysis as described above in Example 1.

[2] = system: neutrophils; test: Chemotherapy (cisplatin)-induced leukopenia, neutrophils by CBC; format: in vivo, Sprague Dawley rats; conditions: rats, blood day 4; for Neutrophils % Change from Control: vs healthy control
Protocol: (§3) To examine the effect of compounds and methods of the present invention on increasing white blood cells, the following studies were performed. In one series of experiments, male Swiss-Webster mice were administered various compounds of the present invention via oral gavage using a ball-tipped gavage needle. Animals treated by oral gavage received a 10 ml/kg volume of either 0.5% carboxymethyl cellulose (CMC) with 0.1% Polysorbate 80 (vehicle control) or various doses (10-100 mg/kg) of a compound of the present invention in 0.5% CMC with 0.1% Polysorbate 80. Animals were dosed once daily for 3 or 4 days. […] The following study was performed to examine the effect of compounds and methods of the present invention on treatment of chemotherapy-induced leukopenia. Thirty-eight Sprague Dawley male rats (280-300 g) were obtained from Charles River Laboratories. Six rats served as healthy controls. On day 0, the remaining thirty-two rats were treated by intravenous injection (i.v.) with a single dose of cisplatin (CP) (Bedford Laboratories, Bedford Ohio) at 5 mg/kg and by oral gavage with one of the following: Compound S at 60 mg/kg; Compound B at 40 mg/kg; or vehicle 2 ml/kg. Compound was administered on day 0, day 2, and day 4 with the first dose given two hours before the CP injection. Blood samples (0.2 ml) were collected on day 4 as follows. Animals were anesthetized with isoflurane and 0.2 ml of blood was collected from the tail vein into a MICROTAINER EDTA-2K tube (Becton-Dickinson). Blood samples were processed to measure total white blood cell, neutrophil, and lymphocyte levels by CBC analysis as described above in Example 3.

[3] = system: hematopoietic progenitor cells (HPCs) in bone marrow; test: Hematopoietic progenitor cells in bone marrow by FACS analysis; format: in vivo, Swiss-Webster mice; conditions: mice, oral gavage, tibia bone marrow 6 h after final dosing
Protocol: as §1, §2

[4] = system: hematopoietic progenitor cells (HPCs); test: Hematopoietic progenitor cells (Sca-1+/c-Kit+) in blood by FACS analysis; format: in vivo, Swiss-Webster mice; conditions: mice, oral gavage, blood 6 h after final dosing
Protocol: (§4) To examine the effect of compounds and methods of the present invention on hematopoietic progenitor cell (HPC) and neutrophil levels, the following studies were performed. Male Swiss-Webster mice were administered various compounds of the present invention via oral gavage using a ball-tipped gavage needle. Animals treated by oral gavage received a 10 ml/kg volume of either 0.5% carboxymethyl cellulose (CMC) with 0.1% Polysorbate 80 (vehicle control) or various doses (10-100 mg/kg) of a compound of the present invention in 0.5% CMC with 0.1% Polysorbate 80. Animals were dosed once daily for 3 or 4 days.
as §1

[5] = system: total white blood cell (WBC); test: Chemotherapy (cisplatin)-induced leukopenia, total WBC by CBC; format: in vivo, Sprague Dawley rats; conditions: rats; for total white blood cell levels in the cisplatin-treated animals (in words): Compound S 60 mg/kg or Compound B 40 mg/kg oral gavage day 0, 2, 4; for Total WBC / Total WBC % Change from Control: blood day 4; for Total WBC % Change from Control: vs healthy control
Protocol: as §3

[6] = system: neutrophils; test: Neutrophils by complete blood count, once daily dosing 3 or 4 days; format: in vivo, Swiss-Webster mice; conditions: mice, oral gavage, blood 6 h after final dosing, CBC
Protocol: as §4, with “increasing white blood cells,” for “hematopoietic progenitor cell (HPC) and neutrophil levels,”, “In one series of experiments, male” for “Male”, “days. Six hours after the final dosing, 200 μl blood samples were collected and total white blood cell, neutrophil, and lymphocyte levels were measured by complete blood count (CBC) using a CellDyn cell analyzer (Abbott Laboratories).” for “days.”

[7] = system: total white blood cell (WBC); test: Total white blood cells by complete blood count, once daily dosing 3 or 4 days; format: in vivo, Swiss-Webster mice; conditions: mice, oral gavage, blood 6 h after final dosing
Protocol: as §4, with “increasing white blood cells,” for “hematopoietic progenitor cell (HPC) and neutrophil levels,”, “In one series of experiments, male” for “Male”, “days. Six hours after the final dosing, 200 μl blood samples were collected and total white blood cell, neutrophil, and lymphocyte levels were measured by complete blood count (CBC) using a CellDyn cell analyzer (Abbott Laboratories).” for “days.”

[8] = system: neutrophils; test: Neutrophils (Mac-1+/Gr-1+) in blood by FACS analysis; format: in vivo, Swiss-Webster mice; conditions: mice, oral gavage, blood 6 h after final dosing
Protocol: as §4, §1

[9] = system: lymphocytes; test: Chemotherapy (cisplatin)-induced leukopenia, lymphocytes by CBC; format: in vivo, Sprague Dawley rats; conditions: rats, blood day 4; for Lymphocytes % Change from Control: vs healthy control
Protocol: as §3

[10] = system: lymphocytes; test: Lymphocytes by complete blood count, once daily dosing 3 or 4 days; format: in vivo, Swiss-Webster mice; conditions: mice, oral gavage, blood 6 h after final dosing, CBC
Protocol: as §4, with “increasing white blood cells,” for “hematopoietic progenitor cell (HPC) and neutrophil levels,”, “In one series of experiments, male” for “Male”, “days. Six hours after the final dosing, 200 μl blood samples were collected and total white blood cell, neutrophil, and lymphocyte levels were measured by complete blood count (CBC) using a CellDyn cell analyzer (Abbott Laboratories).” for “days.”

[11] = 100 mg/kg once daily for 4 days
[12] = cisplatin 5 mg/kg i.v. day 0, compound 40 mg/kg oral gavage day 0, day 2, day 4
[13] = cisplatin 5 mg/kg i.v. day 0, compound 60 mg/kg oral gavage day 0, day 2, day 4
[14] = cisplatin 5 mg/kg i.v. single dose day 0 plus vehicle by oral gavage

Cc1nc(C(=O)NCC(=O)O)c(O)c2ccc(Oc3ccccc3)cc12 [Compound B, [(4-Hydroxy-1-methyl-7-phenoxy-isoquinoline-3-carbonyl)-amino]-acetic acid]
Percent Bone Marrow Neutrophils ([1]; 60 mg/kg once daily for 3 days): 34.7 % gated cells
Percent Bone Marrow Neutrophils Fold Increase Over Control ([1]; 60 mg/kg once daily for 3 days): 1.1 fold
Percent Bone Marrow Neutrophils [1, 11]: 33.6 % gated cells
Percent Bone Marrow Neutrophils Fold Increase Over Control [1, 11]: 1.3 fold
Neutrophils [2, 12]: 2.2 10^3 cells/μl
Neutrophils % Change from Control [2, 12]: 7%
Percent Bone Marrow HPCs ([3]; 60 mg/kg once daily for 3 days): 6.3 % gated cells
Percent Bone Marrow HPCs Fold Increase Over Control ([3]; 60 mg/kg once daily for 3 days): 1.7 fold
Percent Bone Marrow HPCs [3, 11]: 7.0 % gated cells
Percent Bone Marrow HPCs Fold Increase Over Control [3, 11]: 1.6 fold
Blood HPCs ([4]; 60 mg/kg once daily for 3 days): 67 cells/μl
Blood HPCs Fold Increase Over Control ([4]; 60 mg/kg once daily for 3 days): 1.5 fold
Percent Blood HPCs ([4]; 60 mg/kg once daily for 3 days): 0.7 % gated cells
Percent Blood HPCs Fold Increase Over Control ([4]; 60 mg/kg once daily for 3 days): 1.1 fold
Blood HPCs [4, 11]: 126 cells/μl
Blood HPCs Fold Increase Over Control [4, 11]: 7.4 fold
Percent Blood HPCs [4, 11]: 1.2 % gated cells
Percent Blood HPCs Fold Increase Over Control [4, 11]: 3.8 fold
total white blood cell levels in the cisplatin-treated animals (in words) ([5]; 5 mg/kg cisplatin, day 4): increased total white blood cell levels
Total WBC [5, 12]: 16.8 10^3 cells/μl
Total WBC % Change from Control ([5]; cisplatin 5 mg/kg i.v. day 0, compound 40 mg/kg oral gavage day 0, day 2, day 4, reduction not statistically significant): −1* %
Neutrophils ([6]; 60 mg/kg once daily for 3 days): 1.28 10^3 cells/μl
Neutrophils % Increase Over Control ([6]; 60 mg/kg once daily for 3 days): 110%
Neutrophils [6, 11]: 0.96 10^3 cells/μl
Neutrophils % Increase Over Control [6, 11]: 66%
Total WBC ([7]; 60 mg/kg once daily for 3 days): 8.80 10^3 cells/μl
Total WBC % Increase Over Control ([7]; 60 mg/kg once daily for 3 days): 82%
Total WBC [7, 11]: 10.24 10^3 cells/μl
Total WBC % Increase Over Control [7, 11]: 94%
Blood Neutrophils ([8]; 60 mg/kg once daily for 3 days): 126 cells/μl
Blood Neutrophils Fold Increase Over Control ([8]; 60 mg/kg once daily for 3 days): 1.3 fold
Percent Blood Neutrophils ([8]; 60 mg/kg once daily for 3 days): 1.2 % gated cells
Percent Blood Neutrophils Fold Increase Over Control ([8]; 60 mg/kg once daily for 3 days): 0.9 fold
Blood Neutrophils [8, 11]: 936 cells/μl
Blood Neutrophils Fold Increase Over Control [8, 11]: 5.3 fold
Percent Blood Neutrophils [8, 11]: 9.1 % gated cells
Percent Blood Neutrophils Fold Increase Over Control [8, 11]: 2.7 fold
Lymphocytes [9, 12]: 14.7 10^3 cells/μl
Lymphocytes % Change from Control [9, 12]: 9%
Lymphocytes ([10]; 60 mg/kg once daily for 3 days): 7.40 10^3 cells/μl
Lymphocytes % Increase Over Control ([10]; 60 mg/kg once daily for 3 days): 82%
Lymphocytes [10, 11]: 9.18 10^3 cells/μl
Lymphocytes % Increase Over Control [10, 11]: 101%

O=C(O)CNC(=O)c1nc(Cl)c2ccccc2c1O [Compound S, [(1-Chloro-4-hydroxy-isoquinoline-3-carbonyl)-amino]-acetic acid]
Neutrophils [2, 13]: 2.2 10^3 cells/μl
Neutrophils % Change from Control [2, 13]: 7%
total white blood cell levels in the cisplatin-treated animals (in words) ([5]; 5 mg/kg cisplatin, day 4): increased total white blood cell levels
Total WBC [5, 13]: 20.2 10^3 cells/μl
Total WBC % Change from Control [5, 13]: 19%
Lymphocytes [9, 13]: 16.2 10^3 cells/μl
Lymphocytes % Change from Control [9, 13]: 21%

N.N.[Cl][Pt][Cl] [cisplatin, reference compound]
Neutrophils [2, 14]: 1.6 10^3 cells/μl
Neutrophils % Change from Control [2, 14]: −22%
reduction of total white blood cell levels compared to non-treated control animals ([5]; 5 mg/kg cisplatin, day 4): 21%
Total WBC [5, 14]: 13.3 10^3 cells/μl
Total WBC % Change from Control [5, 14]: −21%
Lymphocytes [9, 14]: 10.1 10^3 cells/μl
Lymphocytes % Change from Control [9, 14]: −24%

Reference: US20110039879A1, “METHODS FOR INCREASING WHITE BLOOD CELLS” (FibroGen ,Inc., priority 2007, published 2011)
